Columns and labels:
γ-secretase [1] = molecular target: T1, γ-secretase (Homo sapiens, UniProt P49768); assay: In vitro γ-secretase activity assay, Aβ42 production (ECL); format: biochemical; settings: in vitro inhibition of γ-secretase activity that generates Aβ42; 2.5 hr at 37° C., ECL detection
T1 construct: endogenous in cells
Description: FIG. 2. In vitro characterization of coumarin-dimer allosteric GSIs against various γ-secretase cleavage products. […] The IC50 values were calculated from the dose response curves using a non-linear regression analysis in Prism software. […] The three β-amyloid-detection in vitro assays were modified from our previously reported assay (21) using a biotinylated substrate that eliminated the requirement of anti-β-amyloid biotinylated antibody. Ruthenylated antibodies that detected the -40, -42, or -38 cleavage site were incorporated to detect proteolysis indicative of γ-secretase activity. In vitro Notch assay utilized a recombinant transmembrane portion of the Notch peptide and anti-Notch1 SM320 antibody in conjunction with ruthenylated anti-rabbit secondary antibodies. Electrochemiluminescence was quantified on an Analyzer (BioVeris).
Briefly, recombinant peptide substrate was incubated with γ-secretase (40 μg/ml) in the presence or absence of test compound. […] The reaction was incubated for 2.5 hr at 37° C. and stopped by adding RIPA buffer (150 mM NaCl, 1.0% NP-40, 0.5% sodium deoxycholate, 0.1% SDS, 50 mM Tris HCl, pH 8.0). […] The amount of product was determined using synthetic peptide or recombinant standards.
(§1) Cell membranes and solubilized γ-secretase were prepared as described previously (36). The in vitro and cell γ-secretase assays detecting either Aβ38, Aβ40, or Aβ42 cleavage were performed similar as previously described (21, 36). Cleaved product was detected using ruthenylated antibodies that recognize specific APP cleavage sites (Aβ31-38*, G2-10*, or G2-11* antibody for Aβ38, Aβ40, or Aβ42 respectively). The Km and Vmax in the presence and absence of γ-secretase inhibitors were analyzed by non-linear curve fit using the software SigmaPlot 8.0 with the Michaelis-Menten equation (v=Vm [S]/(Km+[S]; v: initial rate; Vm: maximum velocity; Km: the Michaelis-Menten constant, S: substrate).

[2] = tested on: cells stably transfected with APP; assay: Cell-based assay for production of Aβ38, Aβ40 and Aβ42 peptides (Example 29, FIG. 1); settings: increasing concentrations of compound
Description: The following cell-based assay can be used for assessing inhibitory activity of test compounds on γ-secretase activity on APP expressed in stably transfected cells. Cells such as HEK239 or N2A cells that stably express APP are incubated 24-48 hr. in medium to which is added γ-secretase with or without test compound. The conditioned medium is collected. Secreted Aβ peptides are detected by electrochemiluminescence (ECL) technology as previously described, for example, in Li et al., 2000, Proc. Nat'l Acad. Sci. USA 97:6183-643; Lai et al., 2003, J. Biol. Chem. 278: 22475-22481; and Yin et al., 2007, J. Biol. Chem. 282:23639-23644. Concentration of Aβ peptides can be calculated from standard curves that are generated using synthetic peptides using the ECL assay.
Results of a cell-based assay are provided in FIG. 1 in which cells stably transfected with APP were incubated in medium containing γ-secretase activity and the indicated amounts of compound 37.

γ-secretase [3] = molecular target: T1, γ-secretase; assay: In vitro γ-secretase activity assay, Aβ40 production (ECL); format: biochemical
Description: FIG. 2. In vitro characterization of coumarin-dimer allosteric GSIs against various γ-secretase cleavage products. The potency of 7 unique coumarin-based γ-secretase inhibitors were evaluated for efficacy against γ-secretase-mediated production of Aβ40, Aβ42, Aβ38, and Notch. Additionally, the pan-GSI Compound E was also examined in these assays. The IC50 values were calculated from the dose response curves using a non-linear regression analysis in Prism software. IC50 values are presented with standard deviation (n=3 for each data point). The three β-amyloid-detection in vitro assays were modified from our previously reported assay (21) using a biotinylated substrate that eliminated the requirement of anti-β-amyloid biotinylated antibody. Ruthenylated antibodies that detected the -40, -42, or -38 cleavage site were incorporated to detect proteolysis indicative of γ-secretase activity. In vitro Notch assay utilized a recombinant transmembrane portion of the Notch peptide and anti-Notch1 SM320 antibody in conjunction with ruthenylated anti-rabbit secondary antibodies. Electrochemiluminescence was quantified on an Analyzer (BioVeris). The selectivity ratio for Aβ42 inhibition over Aβ40 and Notch are indicated in the two far right columns.
The assay protocol employed was a modified version of that described in Li et al., 2000, Proc. Nat'l Acad. Sci. USA 97:6183-643, incorporated herein by reference. Briefly, recombinant peptide substrate was incubated with γ-secretase (40 μg/ml) in the presence or absence of test compound. The reaction mixture contained 0.25% CHAPSO, 0.1 μg/μl BSA, protease inhibitor, 50 mM PIPES, pH 7.0, 5 mM MgCl2, 5 mM CaCl2 and 150 mM KCl. The reaction was incubated for 2.5 hr at 37° C. and stopped by adding RIPA buffer (150 mM NaCl, 1.0% NP-40, 0.5% sodium deoxycholate, 0.1% SDS, 50 mM Tris HCl, pH 8.0). The products were detected with various antibody combinations using electrochemiluminescence (ECL) technology as previously described in Li et al., 2000, Proc. Nat'l Acad. Sci. USA 97:6183-643; Lai et al., 2003, J. Biol. Chem. 278: 22475-22481; and Yin et al., 2007, J. Biol. Chem. 282:23639-23644. The amount of product was determined using synthetic peptide or recombinant standards.
as §1

γ-secretase [4] = molecular target: T1, γ-secretase; assay: Inhibition kinetic analysis in the in vitro γ-secretase activity assay; format: biochemical; settings: APP-transmembrane domain substrate
Description: FIG. 4. Kinetic analysis of allosteric GSIs and evaluation of their effect on the γ-secretase active site architecture. (a) Kinetic analysis of CS1 was performed using our modified version of a previously reported in vitro γ-secretase activity assay. The inhibition kinetics were analyzed by using a non-linear curve fit with the Michaelis-Menten equation. Upper right inset: we replotted slopes against the inhibitor concentrations after performing double reciprocal conversion. (b) Schematic representation of the allosteric binding of the di-coumarin compounds to γ-secretase. This binding ultimately causes an alteration at the active site of γ-secretase. Black rectangle represents the coumarin-dimer compound. (c) The binding of L458 to the active site of γ-secretase and its interaction at various subpockets within the enzyme. […]
as §1, with “The in vitro and cell γ-secretase assays detecting either Aβ38, Aβ40, or Aβ42 cleavage were performed similar as previously described (21, 36).” left out

γ-secretase [5] = molecular target: T1, γ-secretase; settings: reference (22); cited from earlier work
γ-secretase active site = molecular target: T2, γ-secretase active site (Homo sapiens, UniProt P49768); assay: Photolabeling of the γ-secretase active site (PS1-NTF) in HeLa membrane with probes L646, GY4, JC8, L505; format: binding; settings: L458 and Compound E at 2 μM, CS-1 up to 100 μM
T2 construct: endogenous in cells; host or cells: HeLa membrane
Description: FIG. 4. Kinetic analysis of allosteric GSIs and evaluation of their effect on the γ-secretase active site architecture. (a) Kinetic analysis of CS1 was performed using our modified version of a previously reported in vitro γ-secretase activity assay. The inhibition kinetics were analyzed by using a non-linear curve fit with the Michaelis-Menten equation. Upper right inset: we replotted slopes against the inhibitor concentrations after performing double reciprocal conversion. (b) Schematic representation of the allosteric binding of the di-coumarin compounds to γ-secretase. This binding ultimately causes an alteration at the active site of γ-secretase. Black rectangle represents the coumarin-dimer compound. (c) The binding of L458 to the active site of γ-secretase and its interaction at various subpockets within the enzyme. (d) Chemical structure of the four photoaffinity probes utilized in the characterization of CS-1 effect on active site architecture. Hydroxyethylamine and benzophenone moieties are marked by blue and red, respectively. (e) Evaluation of CS-1 effect on the photolabeling of four probes. […] (f) Evaluation of CS-2 effect on the active site photolabeling by L505 and GY4. (g) Effect of Compound E on active site photolabling. […] Blotting was performed for PS1-NTF. The photolabeling blots are representative and were performed in triplicate.
We hypothesized that the allosteric binding of the di-coumarin compounds alters the conformation of the active site of γ-secretase and thereby preferentially affects the Aβ42 site cleavage (FIG. 4b). This raised the technical issue of how to probe the contours of the enzymatic active site. Although the structure of γ-secretase has been determined by cryoelectron microscopy (23), the resolution attained is not sufficient to investigate subtle changes within the active site. Consequently, we developed a series of active-site directed inhibitors that incorporate a photoreactive benzophenone entity into varied positions. Using these photoreactive probes, we assessed the effect of the di-coumarin inhibitor binding on the active site of γ-secretase. Since the efficiency of photoinsertion depends on the orientation of the probe and the proximity of residues within the active site, conformational change of the active site can alter the orientation of the probe and contact residues and lead to altered cross-linking efficiencies. Therefore, multiple photoactivatable, active-site directed GSIs will provide a practical approach to evaluate the changes within the active site following allosteric di-coumarin binding.
L458 contains a hydroxyethylamine transition-state isostere that mimics the tetrahedral intermediate of aspartyl proteases and this moiety hydrogen bonds with the catalytic aspartate residues of γ-secretase (20). According to the nomenclature of Schechter and Berger (24), L458 contains the P2, P1, P1′, P2′ and P3′ residues that putatively bind to the S2, S1, S1′, S2′ and S3′ subsites, respectively, within the active site of γ-secretase (FIG. 4c). We have developed a series of biotinylated, photoactivatable inhibitors based on the core structure of L458 that allow us to probe the sub-pockets of the γ-secretase active site (3, 25-26). These inhibitors all have an individual benzophenone group incorporated into L458 at either the P2, P1, P1′, or P3′ position and are referred to as L646, GY4, JC8 and L505 (FIG. 4d). Each of these inhibitors interacts and labels the S2, S1, S1′, and S3′ subsites, respectively, within the γ-secretase complex (FIG. 4c-d).
HeLa membrane was incubated with CHAPSO detergent and photoaffinity probe in the presence or absence of excess L458 or CS-1. Labeled presenilin was isolated using streptavidin beads, separated by SDS-PAGE and subsequently western blotted using anti-PS1-NTF antibodies. Again, presenilin is believed to contain the active site of γ-secretase, therefore we examined PS1 photolabeling. […]

Row | SMILES | IC50 (γ-secretase [1]) [µM] | amount of Aβ38 secreted from the cells [2] | amount of Aβ40 secreted from the cells [2] | amount of Aβ42 secreted from the cells [2] | IC50 (γ-secretase [3]; in vitro inhibition of γ-secretase activity that generates Aβ40, 2.5 hr at 37° C., ECL detection) [µM] | Aβ40/Aβ42 ratio (γ-secretase [3]; ratio of IC50 for Aβ40 to IC50 for Aβ42) | mode of inhibition against APP-TM substrate (γ-secretase [4]) | mode of inhibition when the C100 substrate is used (γ-secretase [5]) | effect on JC-8 photolabeling of PS1-NTF (S1′ subsite) (γ-secretase active site) | effect on L646 photolabeling of PS1-NTF (S2 subsite) (γ-secretase active site) | effect on GY-4 photolabeling of PS1-NTF (S1 subsite) (γ-secretase active site; CS-2 at 100 μM) | effect on L505 photolabeling of PS1-NTF (S3′ subsite) (γ-secretase active site; CS-2 at 100 μM)
1 | O=c1oc2ccccc2c(O)c1C(c1cc(F)c(F)c(F)c1)c1c(O)c2ccccc2oc1=O [Compound 37] | 0.2 | remain relatively constant | remain relatively constant | decrease | 0.6 | 3.0 |  |  |  |  |  | 
2 | CC(C)C[C@H](NC(=O)[C@H](Cc1ccccc1)C[C@@H](O)[C@H](Cc1ccccc1)NC(=O)OC(C)(C)C)C(=O)N[C@@H](Cc1ccccc1)C(N)=O [L-685,458] |  |  |  |  |  |  | competitive inhibitor | non-competitive inhibitor | completely blocked | completely blocked | completely blocked | completely blocked

Reference: US20150133493A1, “COUMARIN-BASED COMPOUNDS FOR THE TREATMENT OF ALZHEIMER'S DISEASE AND CANCER” (Sloan-Kettering Institute for Cancer Research, priority 2008, published 2015)
